# Results published in BigSolDB 2.1.
structure (smiles),measurement,setting,value
OCc1ccc(O[C@@H]2O[C@H](CO)[C@@H](O)[C@H](O)[C@H]2O)cc1,solubility (mole fraction),"in 1,4-dioxane, 288.15 K",0.00324
same,solubility (mole fraction),"in 1,4-dioxane, 293.15 K",0.00373
same,solubility (mole fraction),"in 1,4-dioxane, 298.15 K",0.0043
same,solubility (mole fraction),"in 1,4-dioxane, 303.15 K",0.00493
same,solubility (mole fraction),"in 1,4-dioxane, 308.15 K",0.00562
same,solubility (mole fraction),"in 1,4-dioxane, 313.15 K",0.0063
same,solubility (mole fraction),"in acetone, 273.15 K",0.00097
same,solubility (mole fraction),"in acetone, 278.15 K",0.00117
same,solubility (mole fraction),"in acetone, 283.15 K",0.00142
same,solubility (mole fraction),"in acetone, 288.15 K",0.00171
same,solubility (mole fraction),"in acetone, 293.15 K",0.00199
same,solubility (mole fraction),"in acetone, 298.15 K",0.00233
same,solubility (mole fraction),"in acetone, 303.15 K",0.00273
same,solubility (mole fraction),"in acetone, 308.15 K",0.00318
same,solubility (mole fraction),"in acetone, 313.15 K",0.00368
same,solubility (mole fraction),"in acetonitrile, 273.15 K",0.00066
same,solubility (mole fraction),"in acetonitrile, 278.15 K",0.00076
same,solubility (mole fraction),"in acetonitrile, 283.15 K",0.00088
same,solubility (mole fraction),"in acetonitrile, 288.15 K",0.001
same,solubility (mole fraction),"in acetonitrile, 293.15 K",0.00115
same,solubility (mole fraction),"in acetonitrile, 298.15 K",0.0013
same,solubility (mole fraction),"in acetonitrile, 303.15 K",0.00147
same,solubility (mole fraction),"in acetonitrile, 308.15 K",0.00166
same,solubility (mole fraction),"in acetonitrile, 313.15 K",0.00188
same,solubility (mole fraction),"in cyclohexane, 273.15 K",0.000383
same,solubility (mole fraction),"in cyclohexane, 278.15 K",0.000624
same,solubility (mole fraction),"in cyclohexane, 283.15 K",0.000909
same,solubility (mole fraction),"in cyclohexane, 288.15 K",0.00125
same,solubility (mole fraction),"in cyclohexane, 293.15 K",0.0016
same,solubility (mole fraction),"in cyclohexane, 298.15 K",0.00213
same,solubility (mole fraction),"in cyclohexane, 303.15 K",0.00261
same,solubility (mole fraction),"in cyclohexane, 308.15 K",0.00326
same,solubility (mole fraction),"in cyclohexane, 313.15 K",0.00396
same,solubility (mole fraction),"in cyclohexanone, 273.15 K",0.00128
same,solubility (mole fraction),"in cyclohexanone, 278.15 K",0.00152
same,solubility (mole fraction),"in cyclohexanone, 283.15 K",0.00185
same,solubility (mole fraction),"in cyclohexanone, 288.15 K",0.0022
same,solubility (mole fraction),"in cyclohexanone, 293.15 K",0.00257
same,solubility (mole fraction),"in cyclohexanone, 298.15 K",0.00299
same,solubility (mole fraction),"in cyclohexanone, 303.15 K",0.00344
same,solubility (mole fraction),"in cyclohexanone, 308.15 K",0.00396
same,solubility (mole fraction),"in cyclohexanone, 313.15 K",0.00455
same,solubility (mole fraction),"in ethanol, 273.15 K",0.00085
same,solubility (mole fraction),"in ethanol, 278.15 K",0.00105
same,solubility (mole fraction),"in ethanol, 283.15 K",0.00129
same,solubility (mole fraction),"in ethanol, 288.15 K",0.00157
same,solubility (mole fraction),"in ethanol, 293.15 K",0.00188
same,solubility (mole fraction),"in ethanol, 298.15 K",0.0022
same,solubility (mole fraction),"in ethanol, 303.15 K",0.00255
same,solubility (mole fraction),"in ethanol, 308.15 K",0.00296
same,solubility (mole fraction),"in ethanol, 313.15 K",0.00337
same,solubility (mole fraction),"in ethyl acetate, 273.15 K",0.00174
same,solubility (mole fraction),"in ethyl acetate, 278.15 K",0.002
same,solubility (mole fraction),"in ethyl acetate, 283.15 K",0.00234
same,solubility (mole fraction),"in ethyl acetate, 288.15 K",0.00274
same,solubility (mole fraction),"in ethyl acetate, 293.15 K",0.00318
same,solubility (mole fraction),"in ethyl acetate, 298.15 K",0.00364
same,solubility (mole fraction),"in ethyl acetate, 303.15 K",0.00418
same,solubility (mole fraction),"in ethyl acetate, 308.15 K",0.00481
same,solubility (mole fraction),"in ethyl acetate, 313.15 K",0.00543
same,solubility (mole fraction),"in isopropanol, 273.15 K",0.00114
same,solubility (mole fraction),"in isopropanol, 278.15 K",0.00139
same,solubility (mole fraction),"in isopropanol, 283.15 K",0.00169
same,solubility (mole fraction),"in isopropanol, 288.15 K",0.002
same,solubility (mole fraction),"in isopropanol, 293.15 K",0.00235
same,solubility (mole fraction),"in isopropanol, 298.15 K",0.00271
same,solubility (mole fraction),"in isopropanol, 303.15 K",0.00312
same,solubility (mole fraction),"in isopropanol, 308.15 K",0.00356
same,solubility (mole fraction),"in isopropanol, 313.15 K",0.00403
same,solubility (mole fraction),"in n-butanol, 273.15 K",0.0368
same,solubility (mole fraction),"in n-butanol, 278.15 K",0.0395
same,solubility (mole fraction),"in n-butanol, 283.15 K",0.0423
same,solubility (mole fraction),"in n-butanol, 288.15 K",0.0454
same,solubility (mole fraction),"in n-butanol, 293.15 K",0.0486
same,solubility (mole fraction),"in n-butanol, 298.15 K",0.0521
same,solubility (mole fraction),"in n-butanol, 303.15 K",0.0557
same,solubility (mole fraction),"in n-butanol, 308.15 K",0.0595
same,solubility (mole fraction),"in n-butanol, 313.15 K",0.0633
same,solubility (mole fraction),"in n-propanol, 273.15 K",0.00074
same,solubility (mole fraction),"in n-propanol, 278.15 K",0.00094
same,solubility (mole fraction),"in n-propanol, 283.15 K",0.00115
same,solubility (mole fraction),"in n-propanol, 288.15 K",0.00138
same,solubility (mole fraction),"in n-propanol, 293.15 K",0.00165
same,solubility (mole fraction),"in n-propanol, 298.15 K",0.00194
same,solubility (mole fraction),"in n-propanol, 303.15 K",0.00226
same,solubility (mole fraction),"in n-propanol, 308.15 K",0.00262
same,solubility (mole fraction),"in n-propanol, 313.15 K",0.00301
same,solubility (mole fraction),"in toluene, 273.15 K",0.00148
same,solubility (mole fraction),"in toluene, 278.15 K",0.0018
same,solubility (mole fraction),"in toluene, 283.15 K",0.00212
same,solubility (mole fraction),"in toluene, 288.15 K",0.00248
same,solubility (mole fraction),"in toluene, 293.15 K",0.00288
same,solubility (mole fraction),"in toluene, 298.15 K",0.0033
same,solubility (mole fraction),"in toluene, 303.15 K",0.00378
same,solubility (mole fraction),"in toluene, 308.15 K",0.00431
same,solubility (mole fraction),"in toluene, 313.15 K",0.00493
